Activity calls are given as the source filed them. No cut-off for these calls is given here.
Assays:
[1] = test system: Mycobacterium tuberculosis; experiment: Antituberculosis activity against Mycobacterium tuberculosis H37Rv at 12.5 ug/mL; type: functional, organism-based
CCRF-CEM = experiment: Cytotoxicity against human CCRF-CEM cells; type: functional

C=C(C)[C@@H]1CCC2=C[C@H](C/C(C)=C\C3=CC(C)=C(O3)[C@H]1O)OC2=O
Activity [1]: inactive

C=C(C)[C@H]1C2=CC(C)=C(O2)[C@@H](O)[C@H](C(=C)C)CCC2=C[C@H]1OC2=O
Activity [1]: inactive

C=C(C)[C@H]1C(=O)[C@H]2O[C@@]2(C)C(=O)[C@@H](O)[C@H](C(=C)C)CCC2=C[C@H]1OC2=O
Activity [1]: inactive

C=C(C(=O)OC)[C@@H]1C[C@@H](OC(C)=O)C2=C[C@H](C[C@@]3(C)O[C@@H]3C3=CC(C)=C(O3)[C@H]1OC(C)=O)OC2=O [BIPINNATIN I]
GI50 (CCRF-CEM): 42.7 nM

C=C(C)[C@@H]1C[C@H]2O[C@](O)(C/C(C)=C\C(=O)/C=C(/C)C[C@@H]3OC(=O)[C@]24O[C@@H]34)[C@H]1O
Activity [1]: inactive

Reference: ChEMBL document CHEMBL1144106, “Highly oxygenated pseudopterane and cembranolide diterpenes from the Caribbean sea feather Pseudopterogorgia bipinnata” (1999)
